{"source": "paper PMC5095062", "about": "“The novel choline kinase inhibitor ICL-CCIC-0019 reprograms cellular metabolism and inhibits cancer cell growth” (Oncotarget, 2016)", "key": {"HCT116 cells [1]": {"system": "HCT116 cells", "assay": "Mitochondrial respiration (Seahorse XF24)", "format": "cell-based, human", "details": "10 μM", "experimental": "Extracellular acidification and oxygen consumption rates (ECAR and OCR) were measured in a XF24 extracellular flux analyzer (Seahorse XF24 Extra Cellular Flux Analyzer, North Billerica, MA, USA). Basic XF assay medium was prepared as previously described supplemented with glucose, and the pH adjusted to 7.4 at 37°C. Indicated final concentrations of compounds were obtained by injecting appropriate amounts of compounds dissolved in DMSO or water and diluted in XF assay medium into ports. […] Indicated data points were obtained after 3 min mixing and 2 min wait, followed by 3 min of data collection. Data were normalized to the basal values."}, "HCT116 cells [2]": {"system": "HCT116 cells", "assay": "TMRE mitochondrial membrane potential assay", "format": "cell-based, human", "details": "10 μM, 24 h", "experimental": "HCT116 cells were cultured as above with indicated inhibitors and subject to the tetramethylrhodamine ethyl ester dye method (TMRE) membrane potential assay according to the manufacturers instruction (Abcam ab113852) prior to FACS analysis."}}}
{"substance": "MN58B [reference compound]", "values": [{"measurement": "mitochondrial respiration immediately after adding inhibitor (acute effect)", "setting": "HCT116 cells [1]", "result": "decreased mitochondrial respiration"}, {"measurement": "TMRE-detectable mitochondrial membrane potential", "setting": "HCT116 cells [2]", "result": "decreased"}]}
